Results on 29 compounds are retold here after US20060276464A1, “Diarylsulfone sulfonamides and use thereof” (Wyeth, priority 2005, published 2006).

Read-outs that look alike come from different tables or passages of the source.

The assay addresses T1, SFRP-1 (Homo sapiens, UniProt Q8N474).
T1 sequence (Q8N474 32-314): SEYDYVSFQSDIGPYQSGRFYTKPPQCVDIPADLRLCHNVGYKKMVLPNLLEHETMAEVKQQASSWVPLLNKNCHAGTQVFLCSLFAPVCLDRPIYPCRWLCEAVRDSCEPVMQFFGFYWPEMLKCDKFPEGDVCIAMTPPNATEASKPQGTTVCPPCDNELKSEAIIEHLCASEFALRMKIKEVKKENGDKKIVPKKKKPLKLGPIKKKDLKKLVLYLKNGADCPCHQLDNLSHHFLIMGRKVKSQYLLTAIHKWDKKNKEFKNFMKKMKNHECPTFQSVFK
As to the kind of experiment: Cell-based assay for in vitro measurement of SFRP-1/SARP2 antagonist activity (U2OS cells co-transfected with 16x TCF-tk-Luciferase reporter, Wnt and hSFRP-1).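 Note: U2OS cells co-transfected with a TCF-tk luciferase reporter, a Wnt vector, hSFRP-1 or empty vector and CMV-βgal, luciferase luminescence read in cell lysates alongside βgal activity.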 The note with it: U2OS.

[1] abbreviates: read-out: Fold Induction with SFRP-1, Conc 15 μM, with SFRP-1, fold induction over SFRP-1 control, single dose.
Setting [2] is: read-out: Fold Induction without SFRP-1, Conc 15 μM, without SFRP-1, single dose.

On to `Cc1cc(S(=O)(=O)c2ccccc2)cc(S(=O)(=O)NCCn2ccnc2)c1C` [Example 347, N-[2-(1H-imidazol-1-yl)ethyl]-2,3-dimethyl-5-(phenylsulfonyl)benzenesulfonamide], for which the fold induction at 15 µM under setting [1] was 2.9 and the fold induction at 15 µM under setting [2] turned out to be 1.1.
In the same order, the values of `Cc1cc(S(=O)(=O)c2ccccc2)cc(S(=O)(=O)NCCCn2ccnc2)c1C` [Example 348, N-[3-(1H-imidazol-1-yl)propyl]-2,3-dimethyl-5-(phenylsulfonyl)benzenesulfonamide] are 2.5 and 1.2.
The matching figures for `Cc1cc(S(=O)(=O)c2ccccc2)cc(S(=O)(=O)NCCc2ccccn2)c1C` [Example 349, 2,3-dimethyl-5-(phenylsulfonyl)-N-(2-pyridin-2-ylethyl)benzenesulfonamide]: 2 and 1.2.
In the same order, the values of `Cc1cc(S(=O)(=O)c2ccccc2)cc(S(=O)(=O)NC2CCOCC2)c1C` [Example 350, 2,3-dimethyl-5-(phenylsulfonyl)-N-(tetrahydro-2H-pyran-4-yl)benzenesulfonamide] are 1.8 and 1.3.
As to `Cc1cc(S(=O)(=O)c2ccccc2)cc(S(=O)(=O)NCCC2CCOCC2)c1C` [Example 351, 2,3-dimethyl-5-(phenylsulfonyl)-N-[2-(tetrahydro-2H-pyran-4-yl)ethyl]benzenesulfonamide], the fold induction at 15 µM was determined as 1.5 under setting [1] and 1.3 under setting [2].
The matching figures for `Cc1ccc(S(=O)(=O)c2ccc(NC3CCCCC3)cc2)cc1S(=O)(=O)NCCCn1ccnc1` [Example 352, 5-{[4-(cyclohexylamino)phenyl]sulfonyl}-N-[3-(1H-imidazol-1-yl)propyl]-2-methylbenzenesulfonamide]: 1.7 and 1.
The matching figures for `Cc1ccc(S(=O)(=O)c2ccc(NC(C)c3ccccc3)cc2)cc1S(=O)(=O)NCCCn1ccnc1` (stereo not shown) [Example 355, N-[3-(1H-imidazol-1-yl)propyl]-2-methyl-5-({4-[(1-phenylethyl)amino]phenyl}sulfonyl)benzenesulfonamide]: 3.4 and 0.9.
The matching figures for `O=S(=O)(NC1CCOCC1)c1cc(S(=O)(=O)c2ccccc2)ccc1Cl` [Example 361, 2-chloro-5-(phenylsulfonyl)-N-(tetrahydro-2H-pyran-4-yl)benzenesulfonamide]: 2.3 and 0.9.
With `Cc1ccc(S(=O)(=O)c2cccs2)cc1S(=O)(=O)NCCCn1ccnc1` [Example 362, N-[3-(1H-imidazol-1-yl)propyl]-2-methyl-5-(2-thienylsulfonyl)benzenesulfonamide], the fold induction at 15 µM was 2.4 under setting [1] and 1.1 under setting [2].
In the same order, the values of `Cc1ccc(S(=O)(=O)c2ccoc2C)cc1S(=O)(=O)NCCCn1ccnc1` [Example 363, N-[3-(1H-imidazol-1-yl)propyl]-2-methyl-5-[(2-methyl-3-furyl)sulfonyl]benzenesulfonamide] are 2.1 and 1.1.
The matching figures for `Cc1ccc(S(=O)(=O)c2ccccc2)cc1S(=O)(=O)NC(=O)[C@@H](N)Cc1ccccc1` [Example 364, N-{[2-methyl-5-(phenylsulfonyl)phenyl]sulfonyl}-L-phenylalaninamide]: 1.2 and 1.
In the same order, the values of `COC(=O)[C@@H](Cc1ccccc1)NS(=O)(=O)c1cc(S(=O)(=O)c2ccccc2)ccc1C` [Example 365, methyl N-{[2-methyl-5-(phenylsulfonyl)phenyl]sulfonyl}-D-phenylalaninate] are 1.3 and 1.1.
With `Cc1ccc(S(=O)(=O)c2ccc(NC3CCOCC3)cc2)cc1S(=O)(=O)NCCCn1ccnc1` [Example 366, N-[3-(1H-imidazol-1-yl)propyl]-2-methyl-5-{[4-(tetrahydro-2H-pyran-4-ylamino)phenyl]sulfonyl}benzenesulfonamide], the fold induction at 15 µM is, setting by setting: under setting [1], 2.4; under setting [2], 1.
The matching figures for `Cc1ccc(S(=O)(=O)c2ccc(NCCCOC(C)C)cc2)cc1S(=O)(=O)NCCCn1ccnc1` [Example 367, N-[3-(1H-imidazol-1-yl)propyl]-5-({4-[(3-isopropoxypropyl)amino]phenyl}sulfonyl)-2-methylbenzenesulfonamide]: 2.2 and 0.9.
The matching figures for `Cc1ccc(S(=O)(=O)c2ccc(N[C@@H]3C[C@H]4CC[C@@H]3C4)cc2)cc1S(=O)(=O)NCCCn1ccnc1` [Example 369, 5-({4-[(1R,2R,4S)-bicyclo[2.2.1]hept-2-ylamino]phenyl}sulfonyl)-N-[3-(1H-imidazol-1-yl)propyl]-2-methylbenzenesulfonamide]: 1.9 and 0.7.
In the same order, the values of `Cc1ccc(S(=O)(=O)c2ccc(NCc3ccc(C(F)(F)F)cc3)cc2)cc1S(=O)(=O)NCCCn1ccnc1` [Example 374, N-[3-(1H-imidazol-1-yl)propyl]-2-methyl-5-[(4-{[4-(trifluoromethyl)benzyl]amino}phenyl)sulfonyl]benzenesulfonamide] are 1.5 and 0.9.
Turning to `Cc1ccc(S(=O)(=O)c2ccc(Br)cc2)cc1S(=O)(=O)NC1CCOCC1` [Example 375, 5-[(4-bromophenyl)sulfonyl]-2-methyl-N-(tetrahydro-2H-pyran-4-yl)benzenesulfonamide], the fold induction at 15 µM came out at 1.9 under setting [1] and 0.9 under setting [2].
In the same order, the values of `Cc1ccc(S(=O)(=O)c2ccc(C#N)cc2)cc1S(=O)(=O)NC1CCOCC1` [Example 376, 5-[(4-cyanophenyl)sulfonyl]-2-methyl-N-(tetrahydro-2H-pyran-4-yl)benzenesulfonamide] are 1.5 and 1.1.
In the same order, the values of `Cc1ccc(S(=O)(=O)c2ccccc2Cl)cc1S(=O)(=O)NCCCn1ccnc1` [Example 377, 5-[(2-chlorophenyl)sulfonyl]-N-[3-(1H-imidazol-1-yl)propyl]-2-methylbenzenesulfonamide] are 1.9 and 1.1.
The matching figures for `Cc1ccc(S(=O)(=O)c2ccccn2)cc1S(=O)(=O)NCCCn1ccnc1` [Example 378, N-[3-(1H-imidazol-1-yl)propyl]-2-methyl-5-(pyridin-2-ylsulfonyl)benzenesulfonamide]: 1.7 and 1.1.
With `Cc1ccc(S(=O)(=O)c2ccc(Cl)cc2Cl)cc1S(=O)(=O)NCCCn1ccnc1` [Example 379, 5-[(2,4-dichlorophenyl)sulfonyl]-N-[3-(1H-imidazol-1-yl)propyl]-2-methylbenzenesulfonamide], the fold induction at 15 µM runs as follows: under setting [1], 1.8; under setting [2], 0.9.
The matching figures for `CC(=O)c1ccc(S(=O)(=O)c2ccc(C)c(S(=O)(=O)NC3CCOCC3)c2)cc1` [Example 380, 5-[(4-acetylphenyl)sulfonyl]-2-methyl-N-(tetrahydro-2H-pyran-4-yl)benzenesulfonamide]: 0.5 and 0.6.
The matching figures for `Cc1ccc(S(=O)(=O)c2ccccc2)cc1S(=O)(=O)NCC1CCOCC1` [Example 382, 2-methyl-5-(phenylsulfonyl)-N-(tetrahydro-2H-pyran-4-ylmethyl)benzenesulfonamide]: 2.4 and 0.9.
The matching figures for `Cc1ccc(S(=O)(=O)c2ccc(F)cc2)cc1S(=O)(=O)NCC1CCOCC1` [Example 383, 5-[(4-fluorophenyl)sulfonyl]-2-methyl-N-(tetrahydro-2H-pyran-4-ylmethyl)benzenesulfonamide]: 2.1 and 0.9.
Turning to `CCc1ccc(S(=O)(=O)c2ccc(F)cc2)cc1S(=O)(=O)NCC1CCOCC1` [Example 384, 2-ethyl-5-[(4-fluorophenyl)sulfonyl]-N-(tetrahydro-2H-pyran-4-ylmethyl)benzenesulfonamide], the fold induction at 15 µM was 2.6 under setting [1] and 0.8 under setting [2].
The matching figures for `Cc1cc(C)c(S(=O)(=O)c2ccccc2)cc1S(=O)(=O)NCC1CCOCC1` [Example 385, 2,4-dimethyl-5-(phenylsulfonyl)-N-(tetrahydro-2H-pyran-4-ylmethyl)benzenesulfonamide]: 2.7 and 1.
On to `Cc1ccc(S(=O)(=O)c2ccccc2)cc1S(=O)(=O)NCC(O)c1ccccc1` (stereo not shown) [Example 386, N-(2-hydroxy-2-phenylethyl)-2-methyl-5-(phenylsulfonyl)benzenesulfonamide], for which the fold induction at 15 µM was found to be 1.8 under setting [1] and 1 under setting [2].
In the same order, the values of `Cc1ccc(S(=O)(=O)c2ccc(F)cc2)cc1S(=O)(=O)NCC(O)c1ccccc1` (stereo not shown) [Example 387, 5-[(4-fluorophenyl)sulfonyl]-N-(2-hydroxy-2-phenylethyl)-2-methylbenzenesulfonamide] are 1.7 and 1.4.
In the same order, the values of `CCc1ccc(S(=O)(=O)c2ccc(F)cc2)cc1S(=O)(=O)NCC(O)c1ccccc1` (stereo not shown) [Example 388, 2-ethyl-5-[(4-fluorophenyl)sulfonyl]-N-(2-hydroxy-2-phenylethyl)benzenesulfonamide] are 2.2 and 1.1.
